Source: patent US8598195B2, “Peptidomimetic compounds” (priority 2008, dated 2013)

Target: T1, Aβ 1-40 (Homo sapiens, UniProt P05067)
T1 construct: Lyophilized Aβ 1-40 was dissolved to 500 μM in 4 mM NaOH and divided in two parts
Assay: Aβ aggregation assay for testing of inhibition of amyloid fibril formation (Thioflavin T fluorescence)
Assay type: biochemical
Conditions: 100 μM Aβ 1-40, 5% DMSO, 37° C., 24 hours; FIG. 1
Method: Effect of test substances on aggregation of Aβ 1-40 was measured by detecting fluorescence of added Thioflavin T (ThT). The ThT-fluorescence of Aβ 1-40 aggregated in the presence of the indicated substances was compared to the ThT-fluorescence of Aβ 1-40 aggregated in the presence of 5% DMSO.
Aβ Aggregation Assay for Testing of Inhibition Amyloid Fibril Formation
Lyophilized Aβ 1-40 was dissolved to 500 μM in 4 mM NaOH and divided in two parts. One part was diluted to 20 μM in PBS (50 mM phosphate buffer pH 7.4 containing 100 mM NaCl) and coated onto an ELISA 96-well plate (Costar) for 1 h at room temperature. The plate was washed in PBS to remove unbound Aβ 1-40. Substances (in DMSO) were diluted with PBS to different concentrations in the Aβ 1-40 coated ELISA plate. The second part of NaOH-solubilized Aβ 1-40 was thereafter added to each well to yield a final concentration of 100 μM Aβ 1-40 and 5% DMSO. The plate was incubated at 37° C. with agitation (600 rpm) for 24 hours to allow aggregation of Aβ 1-40.
The Aβ-substance mix was after aggregation diluted 10 times with 25 μM Thioflavin T (ThT) in PBS. The ThT-fluorescence was detected immediately by excitation at 450 nm and emission at 482 nm. The ThT-fluorescence of Aβ 1-40 aggregated with substances was compared to the ThT-fluorescence of Aβ 1-40 aggregated in the presence of 5% DMSO.

T1 sequence (P05067 672-711): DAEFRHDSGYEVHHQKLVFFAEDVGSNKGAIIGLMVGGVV

Structure (SMILES)	Effect on aggregation of Aβ 1-40 (ThT-fluorescence compared to 5% DMSO)
COc1ccc(C2=NN=C3C(=O)N4C(SC[C@H]4C(=O)O)C(c4ccccc4)=C32)cc1 (stereo partly drawn) [Example 39, (7R)-6,7-dihydro-3-(4-methoxyphenyl)-4-phenyl-pyrazolo[4,5-d]thiazolo[3,2-a]pyridine-9-one-7-carboxylic acid]	interfere with the formation of amyloid fibrils
CC(C)Cc1n[nH]c2c(=O)n3c(c(-c4cccc(C(F)(F)F)c4)c12)SC[C@H]3C(=O)O [Example 21, (7R)-3-isobutyl-9-oxo-4-[3-(trifluoromethyl)phenyl]-1,6,7,9-tetrahydropyrazolo[4,3-d][1,3]thiazolo[3,2-a]pyridine-7-carboxylic acid]	interfere with the formation of amyloid fibrils
CC(C)CC1=NN=C2C(=O)N3C(SC[C@H]3C(=O)O)C(c3ccccc3)=C12 (stereo partly drawn) [Example 37, (7R)-6,7-dihydro-3-isobutyl-4-phenyl-pyrazolo[4,5-d]thiazolo[3,2-a]pyridine-9-one-7-carboxylic acid]	interfere with the formation of amyloid fibrils

Target: Recombinant human PAI-1 (Homo sapiens, UniProt P05121)
Assay: Plasma clot lysis assay for testing of PAI-1 inhibitors
Assay type: biochemical
Conditions: clot lysis in platelet-poor plasma (50%), PAI-1 10-13 ng/mL, t-PA 34 ng/mL, 37° C.; IC50 = concentration at which a halving of the clot lysis time was reached
Method: Plasma Clot Lysis Assay for Testing of PAI-1 Inhibitors
CaCl2, p.a. Stock solution 0.1 M in water.
PAI-1 inhibitors dissolved in 100% DMSO.
Clot Lysis in Platelet-Poor Plasma
Blood from healthy fat-fasting volunteers was collected into 0.13 M trisodium citrate, 9 parts blood to 1 part anticoagulant. The tubes were centrifuged at 2000×g, 20 min, at RT. The supernatant, ie, the platelet poor plasma was pooled, aliquoted and frozen at −85° C. until used. At the day of experiment the plasma was thawed in a water bath and temperated to 37° C. All other constituents, except t-PA, were prewarmed to 37° C. To each well on a microtiter plate, 25 μL CaCl2, 25 μL PAI-1 or 25 μL PAI-1 vehicle, 20 μL saline and 5 μL drug or 5 μL vehicle (100% DMSO) were added. Plasma was mixed with cold t-PA solution in the relation 4 parts plasma with 1 part t-PA, just before adding 125 μL of this mixture to each well. The final concentration was 12.5 mM for CaCl2, 10-13 ng/mL for PAI-1, 34 ng/mL for t-PA, and the compounds were tested at a final concentration range 0.1 nM to 0.25 mM. The final plasma concentration was 50%, as a result of the different additives. The plate, covered with a plastic lid, was placed in a Microplate reader (Molecular Devices, US) and gently shaken. The change in turbidity was immediately monitored as a change in absorbance at 405 nm at 37° C. Data points were collected at intervals of 2 min, during a period of 10 h. After finished reading, the absorbance data were transformed into files containing the time and absorbance values for each well. The clot longevity, ie, the time the clot exists, was determined as the time between clot formation, ie, positive Vmax, and clot lysis, ie, negative Vmax. The effect of the drugs, ie, shortening of the longevity for the clot, was expressed as the concentration at which a halving of the clot lysis time was reached, the IC50 (pIC50=−log IC50). Control clot lysis time, set to 100%, was determined in the presence of PAI-1, and the maximal effect, ie, the shortest lysis time that can be reached under defined conditions in this system, in the absence of PAI-1 was set to 0%.
Compounds having a pIC50 higher than 4 were considered as being active.

Sequence of Recombinant human PAI-1 (P05121 24-402): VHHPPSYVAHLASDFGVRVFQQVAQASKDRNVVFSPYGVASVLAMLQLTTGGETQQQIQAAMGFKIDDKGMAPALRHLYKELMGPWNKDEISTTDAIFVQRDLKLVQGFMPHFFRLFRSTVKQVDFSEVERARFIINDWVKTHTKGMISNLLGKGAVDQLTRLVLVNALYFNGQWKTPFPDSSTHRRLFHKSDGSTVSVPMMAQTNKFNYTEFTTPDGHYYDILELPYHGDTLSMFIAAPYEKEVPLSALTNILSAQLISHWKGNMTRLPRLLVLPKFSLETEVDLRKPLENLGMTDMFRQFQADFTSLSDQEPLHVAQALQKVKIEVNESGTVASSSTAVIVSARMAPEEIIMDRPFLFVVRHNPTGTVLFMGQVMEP

Structure (SMILES)	IC50 [µM]
CC(C)Cc1n[nH]c2c(=O)n3c(c(-c4cccc(C(F)(F)F)c4)c12)SC[C@H]3C(=O)O [Example 21, (7R)-3-isobutyl-9-oxo-4-[3-(trifluoromethyl)phenyl]-1,6,7,9-tetrahydropyrazolo[4,3-d][1,3]thiazolo[3,2-a]pyridine-7-carboxylic acid]	25.1
CCn1nc(CC(C)C)c2c(-c3cccc(C(F)(F)F)c3)c3n(c(=O)c21)[C@H](C(=O)O)CS3 [Example 27, (7R)-1-ethyl-3-isobutyl-9-oxo-4-[3-(trifluoromethyl)phenyl]-1,6,7,9-tetrahydropyrazolo[4,3-d][1,3]thiazolo[3,2-a]pyridine-7-carboxylic acid]	79.4
O=C(O)[C@@H]1CSc2c(-c3cccc(C(F)(F)F)c3)c3cn[nH]c3c(=O)n21 [Example 24, (7R)-9-oxo-4-[3-(trifluoromethyl)phenyl]-1,6,7,9-tetrahydropyrazolo[4,3-d][1,3]thiazolo[3,2-a]pyridine-7-carboxylic acid]	25.1
CCCCCCc1n[nH]c2c(=O)n3c(c(-c4ccc(F)c(F)c4)c12)SC[C@H]3C(=O)O [Example 28, (7R)-4-(3,4-difluorophenyl)-3-hexyl-9-oxo-1,6,7,9-tetrahydropyrazolo[4,3-d][1,3]thiazolo[3,2-a]pyridine-7-carboxylic acid]	50.1

Other lines, results leading:

IC50 [µM]	Structure (SMILES)
6.31	CCCCCCc1n[nH]c2c(=O)n3c(c(-c4ccc(F)c(F)c4)c12)SC[C@H]3C(=O)NS(=O)(=O)c1ccccc1 [Example 29, (7R)-4-(3,4-difluorophenyl)-3-hexyl-9-oxo-N-(phenylsulfonyl)-1,6,7,9-tetrahydropyrazolo[4,3-d][1,3]thiazolo[3,2-a]pyridine-7-carboxamide]
12.6	CCCCCCc1n[nH]c2c(=O)n3c(c(-c4cccc(C(F)(F)F)c4)c12)SC[C@H]3C(=O)O [Example 25, (7R)-3-hexyl-9-oxo-4-[3-(trifluoromethyl)phenyl]-1,6,7,9-tetrahydropyrazolo[4,3-d][1,3]thiazolo[3,2-a]pyridine-7-carboxylic acid]
15.8	CCCCCc1n[nH]c2c(=O)n3c(c(-c4cccc(C(F)(F)F)c4)c12)SC[C@H]3C(=O)O [Example 23, (7R)-9-oxo-3-pentyl-4-[3-(trifluoromethyl)phenyl]-1,6,7,9-tetrahydropyrazolo[4,3-d][1,3]thiazolo[3,2-a]pyridine-7-carboxylic acid]
20	CCCc1n[nH]c2c(=O)n3c(c(-c4cccc(C(F)(F)F)c4)c12)SC[C@H]3C(=O)O [Example 22, (7R)-9-oxo-3-propyl-4-[3-(trifluoromethyl)phenyl]-1,6,7,9-tetrahydropyrazolo[4,3-d][1,3]thiazolo[3,2-a]pyridine-7-carboxylic acid]
